Experimental data from patent US20250084095A1, “Aminopyrimidine Derivatives as Cyclin-Dependent Kinase Inhibitors” (Accutar Biotechnology Inc., priority 2023, published 2025).

What was measured:
22RV1 cells = assay: Cell growth inhibition of 22RV1 cells (CellTiter-Glo); type: cell-based; details: Homo sapiens, 22Rv1, 120 h, 5 days, CellTiter-Glo, read-out: 22RV1 Cell Growh GI50
Method: For cell growth assay, 22RV1 (ATCC, CRL-2505) cells were seeded in 96-well plates at 1000 cells/well in 90 μl of RPMI1640 growth medium containing 20% FBS and 1% Penicillin Streptomycin, and then incubated at 37° C. overnight. The following day, the test compound was administered to the cells by using 1000× compound stock solution prepared in DMSO at various concentrations. 1000× compound stock solution was first diluted in culturing medium to 10×, then 10 uL compound medium was added to each well in the cell plates. After administration of the compound, the cells were then incubated at 37° C. for 5 days. Upon completion, the plates were equilibrated at room temperature for approximately 10 min. 100 μl of CellTiter-Glo® Reagent (Promega) was added to each well. The plates were then incubated at room temperature for 10 min and luminescence was recorded by EnSpire plate reader (PerkinElmer).
22RV1 cells were obtained from American Type Culture Collection (ATCC, CRL-2505). 22RV1 cells were seeded in 96-well plates at 1000 cells/well in 90 μL of RPMI1640 growth medium containing 10% FBS and 1% Penicillin Streptomycin, and then incubated at 37° C. overnight. The following day, the test compound was administered to the cells by using 1000× compound stock solution prepared in DMSO at various concentrations. […], then 10 uL compound medium was added to each well in the cell plates. After administration of the compound, the cells were then incubated at […] for 5 days. Upon completion, the plates were equilibrated at room temperature for approximately 10 minutes. 100 μL of CellTiter-Glo® Reagent (Promega) was added to each well. The plates were then incubated at room temperature for 10 minutes and luminescence was recorded by EnSpire plate reader (PerkinElmer).

[1] = tested on: Phospho-Rb (Ser807/811) in MCF7 cells; assay: Phospho-Rb expression inhibition in MCF7 cells quantified by in cell Western; type: cell-based, human; details: Homo sapiens, MCF7, 24 h, 24 hours, in cell Western, read-out: MCF7 pRb IC50
Method: MCF7 cells were obtained from American Type Culture Collection (ATCC, HTB-22). MCF7 cells were plated in 96-well plates (VWR #10062-900, or Coming #3904) in 90 μL culture medium at a density of 20,000 cells/well in the DMEM growth medium containing 10%/FBS and 1% Penicillin Streptomycin, and then incubated at 37° C. overnight. The following day, the test compound was administered to the cells by using 1000× compound stock solution prepared in DMSO at various concentrations. 1000× compound stock solution was first diluted in culturing medium to 10×, then 10 μL compound medium was added to each well in the cell plates. After administration of the compound, the cells were then incubated at 37° C. for 24 h. Upon completion, the cells were washed with PBS briefly. 150 μL/well of 4% formaldehyde was added and the plates were incubated at room temperature for 20 min. The cells were washed with PBS briefly, and permeabilized with 150 µL/well of ice cold 100% methanol for 10 min. The cells were washed with PBS briefly and blocked with 100 µL/well LI-COR blocking buffer for 1 h at room temperature with gentle shaking. The cells were incubated overnight at 4° C. with 50 μL primary antibody rabbit anti-Phospho-Rb (Ser807/811) (1: 500, Cell Signaling, #8516) and anti-Rb (1:200, Santa Cruz, sc-73598) diluted in Intercept Blocking Buffer (LI-COR, #927-60001) containing 0.1% Tween 20. The next day, the cells were washed with 200 μL PBS containing 0.1% Tween 20, 5×5 mins at room temperature with gentle shaking, and incubated with 50 μL secondary antibody, IRDye® 800CW Goat anti-Rabbit IgG (1:1000, LI-COR, #926-32211) and FRDye® 680RD Goat anti-Mouse IgG (1:1000, LI-COR, #926-68070), in LI-COR […] blocking buffer with 0.2% Tween 20 for 1 h at room temperature with gentle shaking. The cells were washed with 200 μL PBS containing 0.1% Tween 20, 5×5 min at room temperature with gentle shaking. The cells were washed with PBS for 5 mins. 100 μL fresh PBS was added to each well and the plates were imaged on a LI-COR Odyssey CLX plate reader.
MCF7 cells were obtained from American Type Culture Collection (ATCC, HTB-22). SW1573-CDK6 KO and SW1573-CDK4 KO cells were generated by the CRISPR-Cas9 technology. All cells were plated in 96-well plates (VWR #10062-900, or Corning #3904) in 90 uL culture medium at a density of 20,000 cells/well in the respective growth medium containing 10% FBS and 1% Penicillin Streptomycin, and then incubated at 37° C. overnight. The following day, the test compound was administered to the cells by using 1000× compound stock solution prepared in DMSO at various concentrations. 1000× compound stock solution was first diluted in culturing medium to 10×, then 10 uL compound medium was added to each well in the cell plates. After administration of the compound, the cells were then incubated at 37° C. for 24 hours. Upon completion, the cells were washed with PBS briefly. 150 uL/well of 4% formaldehyde was added and the plates were incubated at room temperature for 20 mins. The cells were washed with PBS briefly, and permeabilized with 150 uL/well of ice cold 100% methanol for 10 mins. The cells were washed with PBS briefly and blocked with 100 uL/well LI-COR blocking buffer for 1 hr at room temperature with gentle shaking. The cells were incubated overnight at 4° C. with 50 uL primary antibody rabbit anti-Phospho-Rb (Ser807/811) (1: 500, Cell Signaling, #8516) and anti-Rb (1:200, Santa Cruz, sc-73598) diluted in Intercept Blocking Buffer (LI-COR, #927-60001) containing 0.1% Tween 20. The next day, the cells were washed with 200 uL PBS containing 0.1% Tween 20, 5×5 mins at room temperature with gentle shaking, and incubated with 50 uL secondary antibody, IRDye® 800CW Goat anti-Rabbit IgG (1:1000, LI-COR, #926-32211) and IRDye®680RD Goat anti-Mouse IgG (1:1000, LI-COR, #926-68070), in LI-COR blocking buffer with 0.2% Tween 20 for 1 hr at room temperature with gentle shaking. […]

Structure (SMILES) | GI50 (22RV1 cells) | IC50 [1]
CC(C)(O)C1=Nc2c(F)cc(-c3nc(N[C@@H]4C[C@H]5CO[C@H](O5)[C@H]4O)ncc3Cl)cc2C12CCCC2 [Compound 33, (1S,3R,4S,5R)-3-((5-chloro-4-(7′-fluoro-2′-(2-hydroxypropan-2-yl)spiro[cyclopentane-1,3′-indol]-5′-yl)pyrimidin-2-yl)amino)-6,8-dioxabicyclo[3.2.1]octan-4-ol] | 120 to 450 nM | 40 to 150 nM
C[C@H]1COc2c(-c3nc(N[C@@H]4C[C@H]5CO[C@H](O5)[C@H]4O)ncc3Cl)cc(F)c3nc(C(C)(C)O)n1c23 [Compound 37, (1S,3R,4S,5R)-3-((5-chloro-4-((S)-8-fluoro-2-(2-hydroxypropan-2-yl)-3-methyl-3,4-dihydro-5-oxa-1,2a-diazaacenaphthylen-6-yl)pyrimidin-2-yl)amino)-6,8-dioxabicyclo[3.2.1]octan-4-ol] | 120 to 450 nM | 40 to 150 nM
C[C@@H]1COc2c(-c3nc(N[C@@H]4C[C@H]5CO[C@H](O5)[C@H]4O)ncc3Cl)cc(F)c3nc(C(C)(C)O)n1c23 [Compound 38, (1S,3R,4S,5R)-3-((5-chloro-4-((R)-8-fluoro-2-(2-hydroxypropan-2-yl)-3-methyl-3,4-dihydro-5-oxa-1,2a-diazaacenaphthylen-6-yl)pyrimidin-2-yl)amino)-6,8-dioxabicyclo[3.2.1]octan-4-ol] | 120 to 450 nM | ≤ 40 nM
CC1OCC(C)n2c1nc1c(F)cc(-c3nc(N[C@@H]4C[C@H]5CO[C@H](O5)[C@H]4O)ncc3Cl)cc12 (stereo partly drawn) [Compound 49, (1S,3R,4S,5R)-3-((5-chloro-4-(9-fluoro-1,4-dimethyl-3,4-dihydro-1H-benzo[4,5]imidazo[2,1-c][1,4]oxazin-7-yl)pyrimidin-2-yl)amino)-6,8-dioxabicyclo[3.2.1]octan-4-ol] | 120 to 450 nM | 40 to 150 nM
CC(C)n1c(C(C)(C)O)nc2c(F)cc(-c3nc(N[C@@H]4C[C@H]5OC[C@H](O5)[C@H]4O)ncc3Cl)cc21 [Compound 72, (1S,2S,3R,5S)-3-((5-chloro-4-(4-fluoro-2-(2-hydroxypropan-2-yl)-1-isopropyl-1H-benzo[d]imidazol-6-yl)pyrimidin-2-yl)amino)-6,8-dioxabicyclo[3.2.1]octan-2-ol] | 120 to 450 nM | 40 to 150 nM
CC(C)n1c(C(C)(C)O)nc2c(F)cc(-c3nc(N[C@@H]4C[C@@H]5CO[C@@H](O5)[C@H]4O)ncc3Cl)cc21 [Compound 137, (1R,3R,4S,5S)-3-((5-chloro-4-(4-fluoro-2-(2-hydroxypropan-2-yl)-1-isopropyl-1H-benzo[d]imidazol-6-yl)pyrimidin-2-yl)amino)-6,8-dioxabicyclo[3.2.1]octan-4-ol] | > 3000 nM | 150 to 1000 nM
CC(C)n1c(N2CC[C@@H](F)C2)nc2c(F)cc(-c3nc(N[C@@H]4C[C@H]5CO[C@H](O5)[C@H]4O)ncc3Cl)cc21 [Compound 151, (1S,3R,4S,5R)-3-((5-chloro-4-(4-fluoro-2-((R)-3-fluoropyrrolidin-1-yl)-1-isopropyl-1H-benzo[d]imidazol-6-yl)pyrimidin-2-yl)amino)-6,8-dioxabicyclo[3.2.1]octan-4-ol] | 120 to 450 nM | 40 to 150 nM
CC(C)n1c(-c2ccccc2)nc2c(F)cc(-c3nc(N[C@@H]4C[C@H]5CO[C@H](O5)[C@H]4O)ncc3Cl)cc21 [Compound 163, (1S,3R,4S,5R)-3-((5-chloro-4-(4-fluoro-1-isopropyl-2-phenyl-1H-benzo[d]imidazol-6-yl)pyrimidin-2-yl)amino)-6,8-dioxabicyclo[3.2.1]octan-4-ol] | 120 to 450 nM | 40 to 150 nM
CC(C)(O)c1nc2c(F)cc(-c3nc(N[C@@H]4C[C@H]5CO[C@H](O5)[C@H]4O)ncc3Cl)cc2n1C1(CF)CC1 [Compound 167, (1S,3R,4S,5R)-3-((5-chloro-4-(4-fluoro-1-(1-(fluoromethyl)cyclopropyl)-2-(2-hydroxypropan-2-yl)-1H-benzo[d]imidazol-6-yl)pyrimidin-2-yl)amino)-6,8-dioxabicyclo[3.2.1]octan-4-ol] | ≤ 120 nM | 40 to 150 nM
CC(C)n1c(C2(C(F)F)CC2)nc2c(F)cc(-c3nc(N[C@@H]4C[C@H]5CO[C@H](O5)[C@H]4O)ncc3Cl)cc21 [Compound 168, (1S,3R,4S,5R)-3-((5-chloro-4-(2-(1-(difluoromethyl)cyclopropyl)-4-fluoro-1-isopropyl-1H-benzo[d]imidazol-6-yl)pyrimidin-2-yl)amino)-6,8-dioxabicyclo[3.2.1]octan-4-ol] | ≤ 120 nM | 40 to 150 nM
CC(C)n1c(C(C)(C)C(F)F)nc2c(F)cc(-c3nc(N[C@@H]4C[C@H]5CO[C@H](O5)[C@H]4O)ncc3Cl)cc21 [Compound 169, (1S,3R,4S,5R)-3-((5-chloro-4-(2-(1,1-difluoro-2-methylpropan-2-yl)-4-fluoro-1-isopropyl-1H-benzo[d]imidazol-6-yl)pyrimidin-2-yl)amino)-6,8-dioxabicyclo[3.2.1]octan-4-ol] | ≤ 120 nM | 40 to 150 nM
CC(C)n1c(C2(F)COC2)nc2c(F)cc(-c3nc(N[C@@H]4C[C@H]5CO[C@H](O5)[C@H]4O)ncc3Cl)cc21 [Compound 170, (1S,3R,4S,5R)-3-((5-chloro-4-(4-fluoro-2-(3-fluorooxetan-3-yl)-1-isopropyl-1H-benzo[d]imidazol-6-yl)pyrimidin-2-yl)amino)-6,8-dioxabicyclo[3.2.1]octan-4-ol] | 450 to 3000 nM | 40 to 150 nM
CC(C)n1c(C2(O)COC2)nc2c(F)cc(-c3nc(N[C@@H]4C[C@H]5CO[C@H](O5)[C@H]4O)ncc3Cl)cc21 [Compound 172, (1S,3R,4S,5R)-3-((5-chloro-4-(4-fluoro-2-(3-hydroxyoxetan-3-yl)-1-isopropyl-1H-benzo[d]imidazol-6-yl)pyrimidin-2-yl)amino)-6,8-dioxabicyclo[3.2.1]octan-4-ol] | 120 to 450 nM | 40 to 150 nM
